By Ki is commonly meant the dissociation constant of the complex between target and ligand, obtained from inhibition or displacement. Read a high Ki as weaker binding.

This test concerns the target human AT2 receptor (Homo sapiens (Human), UniProt P50052). Description: AT2 receptor binding assay ([125I]CGP 42112A displacement, CHO-K1 cell membranes). The following applies: membranes of CHO-K1 cells stably expressing human AT2 receptor; 0.05 nM [125I]CGP 42112A; Ki derived from IC50 by Cheng-Prussoff equation. The procedure: Reagents were purchased from Sigma-Aldrich, unless otherwise specified. Dialyzed fetal bovine serum (FBS) was from Life Technologies (cat. no. 10073772). Valiscreen® human angiotensin AT2 receptor cell line (cat. no. ES-070-C), [^125I]CGP 42112A (cat. no. NEX324025UC) and MicroScint™ 40 (cat. no. 6013641) were purchased from PerkinElmer. CGP 42112A (cat. no. 2569) and PD 123,319 ditrifluoroacetate (cat. no. 1361) were from Tocris Biosciences.
6. […] Compound Preparation
Compounds were prepared from 10 mM stock solutions in 100% DMSO. Dilutions were made using electronic multichannel pipettes.
Controls • Total binding (high control) was determined in the absence of unlabelled ligand. A solution of 10% DMSO in assay buffer was prepared. • Non-specific binding (low control) was determined in the presence of a vast excess (10 μM) of PD 123,319. 1 mM stock solution of PD 123,319 in water was diluted […] with 10% DMSO in assay buffer.
15 μL compound solution was transferred to duplicate wells of assay plate. 5 compounds were tested per plate. 15 μL control solutions were transferred to columns 1 and 12 of assay plate.

Chain of human AT2 receptor (P50052 whole entry): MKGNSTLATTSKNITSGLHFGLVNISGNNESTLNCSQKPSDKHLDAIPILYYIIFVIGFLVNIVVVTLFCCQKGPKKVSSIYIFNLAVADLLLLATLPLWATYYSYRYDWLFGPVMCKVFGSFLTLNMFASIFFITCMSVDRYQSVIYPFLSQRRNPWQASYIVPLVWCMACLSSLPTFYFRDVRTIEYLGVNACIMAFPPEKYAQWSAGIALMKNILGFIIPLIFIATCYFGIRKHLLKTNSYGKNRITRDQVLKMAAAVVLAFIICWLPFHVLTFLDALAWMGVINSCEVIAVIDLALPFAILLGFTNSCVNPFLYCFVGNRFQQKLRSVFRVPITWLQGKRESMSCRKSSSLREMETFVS

Turning to `O=C(O)[C@@H]1C[C@H](N2CCCOc3cc(F)c(F)cc32)CCN1C(=O)C(c1ccccc1)c1ccccc1` [Compound 1, (2S,4R)-4-(7,8-Difluoro-3,4-dihydrobenzo[b][1,4]oxazepin-5 (2H)-yl)-1-(2,2-diphenylacetyl)piperidine-2-carboxylic acid], the Ki was 7 nM.
Turning to `COc1ccc2c(c1)CCCCN2[C@@H]1CCN(C(=O)C(c2ccccc2)c2ccccc2)[C@H](C(=O)O)C1` [Compound 5, (2S,4R)-1-(2,2-Diphenylacetyl)-4-(7-methoxy-2,3,4,5-tetrahydro-1H-benzo[b]azepin-1-yl)piperidine-2-carboxylic acid], the Ki worked out at 9 nM.
In turn, `O=C(O)[C@@H]1C[C@H](N2CCCOc3cc(F)ccc32)CCN1C(=O)C(c1ccccc1)c1ccccc1` [Compound 2, (2S,4R)-1-(2,2-Diphenylacetyl)-4-(8-fluoro-3,4 dihydrobenzo[b][1,4]oxazepin-5(2H)-yl)piperidine-2-carboxylic acid] yielded a Ki of 9 nM.
As to `O=C(O)[C@@H]1C[C@H](N2CCCOc3ccccc32)CCN1C(=O)C(c1ccccc1)c1ccccc1` [Compound 4, (2S,4R)-4-(3,4-Dihydrobenzo[b][1,4]oxazepin-5(2H)-yl)-1-(2,2-diphenylacetyl)piperidine-2-carboxylic acid], the affinity corresponds to a Ki of 15 nM.
In turn, `O=C(O)[C@@H]1C[C@H](N2CCCOc3ccc(F)cc32)CCN1C(=O)C(c1ccccc1)c1ccccc1` [Compound 3, (2S,4R)-1-(2,2-Diphenylacetyl)-4-(7-fluoro-3,4dihydrobenzo[b][1,4]oxazepin-5(2H)-yl)piperidine-2-carboxylic acid] registered a Ki of 17 nM.

The values above are taken from patent US10308628B2, “Heterocyclic compounds and methods for their use” (NOVARTIS AG, priority 2015, dated 2019).
